Converted amounts (≈) assume the structure as drawn. “Also recorded” adds a separate entry of the source.
Columns and labels:
[1] = Multiple rising dose plasma PK, OZ439 oral dispersion once daily for 3 days; assay type: in vivo, human; conditions: for Rac / AUC(0-t) / Cmax: geometric mean (CV%); for AUC(0-t) / Cmax / Tmax: po; for AUC(0-t): AUC(0,24 h)
[2] = Single rising dose plasma PK, OZ439 capsule, fasted healthy subjects; assay type: in vivo, human
[3] = 14 day toxicology or CNS safety pharmacology studies, preclinical; cited from earlier work
[4] = Safety assessment in healthy subjects; assay type: in vivo, human
[5] = system: P. falciparum laboratory strain NF54; experiment: Ex vivo bioactivity assay of serum samples; assay type: cell-based; conditions: Plasmodium falciparum
[6] = system: Plasmodium berghei; conditions: single oral dose of 20 mg kg^−1; already known; cited from earlier work
[7] = Food effect on plasma PK, 800 mg OZ439 oral dispersion, fed vs fasted; assay type: in vivo; conditions: human; for AUC(0-t): single dose 800 mg OZ439 oral dispersion, geometric mean (CV%)
[8] = system: CYP3A4; experiment: CYP3A4 induction assay; assay type: in vivo, human; conditions: up to 3 days dosing
[9] = Single rising dose plasma PK, OZ439 oral dispersion, fasted healthy subjects; assay type: in vivo, human; conditions: for Tmax / AUC(0-inf) / AUC(0-t) / Cmax: human, plasma, po
[10] = dogs, preclinical; cited from earlier work
[11] = Urinary excretion of OZ439 and metabolites; assay type: in vivo, human; conditions: single rising dose, 0-48 h urine, data not shown
[12] = Plasma pharmacokinetics of OZ439, summary over single and multiple dose parts; assay type: in vivo, human
[13] = human, plasma, 200 mg, 200 mg once a day for 3 days, oral dispersion, day 1
[14] = human, plasma, 200 mg, 200 mg once a day for 3 days, oral dispersion, day 3
[15] = human, plasma, 400 mg, 400 mg once a day for 3 days, oral dispersion, day 1
[16] = human, plasma, 400 mg, 400 mg once a day for 3 days, oral dispersion, day 3
[17] = human, plasma, 800 mg, 800 mg once a day for 3 days, oral dispersion, day 1
[18] = human, plasma, 800 mg, 800 mg once a day for 3 days, oral dispersion, day 3
[19] = both, human, plasma, oral, 50 mg
[20] = both, human, plasma, oral, 100 mg
[21] = both, human, plasma, oral, 200 mg
[22] = 800 mg oral dispersion, fasted regimen, possibly treatment related
[23] = single dose 1600 mg oral dispersion, related to study drug

For `c1cc([C@H]2CC[C@]3(CC2)OO[C@]2(O3)C3CC4CC(C3)CC2C4)ccc1OCCN1CCOCC1` [OZ439], the Rac ([1]; 400 mg once a day for 3 days, oral dispersion, day 3) was 1.76 (29.9), the Rac ([1]; 800 mg once a day for 3 days, oral dispersion, day 3) was 1.43 (26.0) and the attainment of steady-state ([1]; day 3 of dosing) was “steady-state was not achieved; also recorded: had not been attained”. For the same compound, the concentration at 96 h ([1]; human, plasma, oral, 400 mg) was about 17 ng/mL, the AUC(0-t) [1, 13] was 2640 ng·h/mL and the AUC(0-t) [1, 14] was 3060 ng·h/mL. It also gave a Cmax [1, 13] of 314 ng/mL, a Cmax [1, 14] of 342 ng/mL and a Tmax ([1]; human, plasma, 200 mg, tmax, 200 mg once a day for 3 days, oral dispersion, day 1, median (range)) of 3.5 h. For the same compound, the Tmax ([1]; human, plasma, 200 mg, tmax, 200 mg once a day for 3 days, oral dispersion, day 3, median (range)) was 3 h, the AUC(0-t) [1, 15] was 4560 ng·h/mL and the AUC(0-t) [1, 16] was 7990 ng·h/mL. For the same compound, the Cmax [1, 15] was 505 ng/mL, the Cmax [1, 16] was 764 ng/mL and the Tmax ([1]; human, plasma, 400 mg, tmax, 400 mg once a day for 3 days, oral dispersion, day 1, median (range)) was 3.5 h. The Tmax ([1]; human, plasma, 400 mg, tmax, 400 mg once a day for 3 days, oral dispersion, day 3, median (range)) was 3 h, the AUC(0-t) [1, 17] was 9570 ng·h/mL and the AUC(0-t) [1, 18] was 13700 ng·h/mL. The Cmax [1, 17] was 1130 ng/mL, the Cmax [1, 18] was 1390 ng/mL and the Tmax ([1]; human, plasma, 800 mg, median tmax, 200, 400 or 800 mg once daily for 3 days, oral dispersion) was 3 h. For the same compound, the Tmax ([1]; human, plasma, 800 mg, tmax, 800 mg once a day for 3 days, oral dispersion, day 1, median (range)) was 3 h, the Tmax ([1]; human, plasma, 800 mg, tmax, 800 mg once a day for 3 days, oral dispersion, day 3, median (range)) was 3 h and the “inter-subject variability of AUC(0,24 h)” value ([1]; multiple dose, oral dispersion) was 54.1%. For the same compound, the “inter-subject variability of Cmax” value ([1]; multiple dose, oral dispersion) was 48.9%, the AUC(0-t) [2, 19] was 102 ng·h/mL and the Cmax [2, 19] was 17.4 ng/mL. It also gave a Tmax [2, 19] of 3 h, an AUC(0-t) [2, 20] of 249 ng·h/mL and a Cmax [2, 20] of 34.2 ng/mL. It also gave a Tmax [2, 20] of 5 h, an AUC(0-t) [2, 21] of 890 ng·h/mL and a Cmax [2, 21] of 102 ng/mL. The Tmax [2, 21] was 3.5 h, the Cmax ([2]; both, human, plasma, oral, 400 mg) was 135 ng/mL and the “inter-subject variability of AUC(0,t)” value ([2]; capsule) was 71.5%. For the same compound, the “inter-subject variability of Cmax” value ([2]; capsule) was 79.5%, the “intra-subject variability of AUC(0,t)” value ([2]; capsule) was 92.6% and the “intra-subject variability of Cmax” value ([2]; capsule) was 77.4%. The Tmax ([2]; human, plasma, oral) was 3 to 5 h, the AUC(0-t) ([2]; human, plasma, oral, 400 mg) was 1130 ng·h/mL and the Tmax ([2]; human, plasma, oral, 400 mg) was 3 h. The AUC(0-inf) ([2]; human, plasma, oral, 800 mg) was 4690 ng·h/mL, the AUC(0-t) ([2]; human, plasma, oral, 800 mg) was 3010 ng·h/mL and the Cmax ([2]; human, plasma, oral, 800 mg) was 315 ng/mL. It also gave a Tmax ([2]; human, plasma, oral, 800 mg) of 3 h, a concentration at 24 h ([2]; human, plasma, oral, 800 mg) of over 20 ng/mL and an AUC(0-inf) ([2]; human, plasma, oral, 1200 mg) of 9130 ng·h/mL. It also gave an AUC(0-t) ([2]; human, plasma, oral, 1200 mg) of 6530 ng·h/mL, a Cmax ([2]; human, plasma, oral, 1200 mg) of 701 ng/mL and a Tmax ([2]; human, plasma, oral, 1200 mg) of 3 h. For the same compound, the “central nervous system toxicity” value [3] was “no preclinical evidence of central nervous system toxicity”, the “subjects experiencing AEs” value ([4]; 200 mg once daily for 3 days) was “Three of six” and the “subjects experiencing AEs” value ([4]; 400 mg once daily for 3 days) was 1/6. For the same compound, the “subjects experiencing AEs” value ([4]; 800 mg once daily for 3 days) was 4/6, the headache [4, 22] was 1/12 and the nausea [4, 22] was 1/12. The oropharyngeal pain [4, 22] was 1/12, the “subjects experiencing AEs” value ([4]; 800 mg oral dispersion, fed regimen) was “Three of 12” and the headache ([4]; 800 mg oral dispersion, fed regimen, possibly treatment related) was 2/12. For the same compound, the safety and tolerability ([4]; 200, 400 and 800 mg once daily for 3 days) was “safe and well tolerated”, the “effect on QTc interval” value ([4]; healthy subjects) was “no significant effect” and the “overall incidence of AEs” value ([4]; other single rising dose groups, out of 6–8) was 0–2 subjects. The safety and tolerability ([4]; single dose 800 mg oral dispersion, fasted or fed) was “safe and well tolerated”, the “overall incidence of AEs” value ([4]; single dose 1600 mg oral dispersion) was 5/6 and the diarrhoea [4, 23] was 3/6. For the same compound, the gastrointestinal hypermotility [4, 23] was 2/6, the nausea [4, 23] was 3/6 and the “effect on audiometry/BAEP” value ([4]; single dose and repeat dose parts) was “no clinically significant changes; also recorded: No effect”. The safety and tolerability ([4]; single doses 50 mg up to 1200 mg capsule, oral dispersion up to 1600 mg) was “safe and well tolerated”, the IC50 ([5]; NF54, ex vivo serum samples, average value) was 1.5 ng/mL (≈ 3.19 nM) and the IC50 ([5]; NF54, ex vivo serum samples, general range) was 1.3 to 2 ng/mL (≈ 2.77 to 4.26 nM). The IC50 ([5]; NF54, pre-dose serum spiked with a known amount of OZ439) was 1.7 ng/mL (≈ 3.62 nM), the “cure of Plasmodium berghei-infected mice” value [6] was “completely cures” and the concentration at 96 h [7] was over 10 ng/mL. The AUC(0-t) ([7]; fasted) was 7590 ng·h/mL, the AUC(0-t) ([7]; fed) was 23100 ng·h/mL and the “induction of CYP3A4” value [8] was “did not induce”. The “time mean plasma concentrations were above 10 ng ml^−1” value ([9]; 400 mg oral dispersion, fasted) was 36 h, the “time mean plasma concentrations were above 10 ng ml^−1” value ([9]; 800 mg oral dispersion, fasted) was 60 h and the “AUC(0,t), oral dispersion compared with capsule” value ([9]; 800 mg, fasted) was 3.2 fold. The “Cmax, oral dispersion compared with capsule” value ([9]; 800 mg, fasted) was 2.9 fold, the “time mean plasma concentrations were above 10 ng ml^−1” value ([9]; 1600 mg oral dispersion, fasted) was 96 h and the Tmax [9] was 3 to 5 h. For the same compound, the AUC(0-inf) ([9]; 400 mg) was 5540 ng·h/mL, the AUC(0-t) ([9]; 400 mg) was 5430 ng·h/mL and the Cmax ([9]; 400 mg) was 566 ng/mL. For the same compound, the Tmax ([9]; 400 mg) was 3 h, the AUC(0-inf) ([9]; 800 mg) was 9790 ng·h/mL and the AUC(0-t) ([9]; 800 mg) was 9630 ng·h/mL. It also gave a Cmax ([9]; 800 mg) of 917 ng/mL, a Tmax ([9]; 800 mg) of 3 h and an AUC(0-t) ([9]; 1600 mg) of 17500 ng·h/mL. The Cmax ([9]; 1600 mg) was 1340 ng/mL, the Tmax ([9]; 1600 mg) was 5 h and the “inter-subject variability of AUC(0,∞)” value ([9]; oral dispersion) was 57.2%. For the same compound, the “inter-subject variability of Cmax” value ([9]; oral dispersion) was 41.8%, the “intra-subject variability of AUC(0,∞)” value ([9]; oral dispersion) was 23.2% and the “intra-subject variability of Cmax” value ([9]; oral dispersion) was 14.0%. For the same compound, the “no observed adverse effect level (NOAEL)” value [10] was 20 mg/kg/day, the urinary concentrations [11] was “low or below the limit of quantitation” and the Tmax ([12]; human, plasma, oral) was about 3 h. For the same compound, the “time plasma concentrations exceed the estimated minimum effective concentration” value ([12]; well tolerated dose levels) was about 96 h.

— paper PMC3558805 (British Journal of Clinical Pharmacology, 2012)
